Assays:
U87 glioma cells [1] = assay: In vitro angiogenic assay, U87 conditioned media on human dermal endothelial cells; type: cell-based
Method: (§1) The in vitro angiogenesis of 4910, 5310 and U87 glioma cells and MDAMB231 and ZR71 breast cancer cells in the presence of specified concentrations of compounds were determined as follows, cells (2×10^4/well) were seeded in 8-well chamber slides and were treated with various concentrations of test compounds. After a 24 h incubation period, the conditioned media was removed and added to a 4×10^4 human dermal endothelial cell (monolayer in 8-well chamber slides) and the human dermal endothelial cells were allowed to grow for 72 h. Cells were then fixed in 3.7% formaldehyde and stained with H&E and photographed.

[2] = tested on: Baf3 murine leukemia cells (T315I); assay: Blast cell count in nude mice implanted with Baf3 T315I cells; type: in vivo; details: Baf3T315I; Imatinib 10 mg/kg, AN019 20 mg/kg, AN024 20 mg/kg, oral gavage or ip; day 42
Source text: (§2) Blood smears were obtained via the tail vein or via the femoral vein every 6th day and blast cells counted and graphically represented.
(§3) Abdominal swelling and decrease in activity was monitored daily, blood smear taken via the tail vein or the femoral vein every 6th day and H&E stained as per standard protocols. 42 days after implantation, mice were sacrificed and spleens harvested.
(§4) Nude mice were intraperitoneally implanted with Baf3 mutant cells (wt, T315I, M351T or E255K). […] Blood was drawn from the femoral vein or tail vein every 6th day and blast cell count determined and graphically represented.

[3] = tested on: AKT, ERK and Pi3k in ZR71 breast cancer cells; assay: Western blot analysis, ZR71; type: cell-based
Method: (§5) Western blot analysis of 4910, 5310 and U87 glioma cells and MDAMB231 and ZR71 breast cancer cells in the presence of specified concentrations of compounds were assessed as per standard protocols. Cells were treated with AN019, AN024 or Temozolomide at the specified concentrations. 24 h after treatment, cells were collected and cell lysates extracted. Equal quantities of proteins were fractionated by SDS-PAGE. The fractionated proteins were blotted on to nylon membranes and immunoprobed for AKT, ERK and Pi3k. Breast cancer cell protein isolates were additionally immunoprobed for EGFR, ErbB1, ErbB2 and ErbB3.

K562 = assay: ED50 (po) in leukemic mice (K562); details: po, mice
[4] = tested on: MDAMB231 breast cancer cells; assay: In vitro angiogenic assay, MDA-MB-231 conditioned media on human dermal endothelial cells; type: cell-based; details: MDA-MB-231 cells
Method: as §1

[5] = tested on: MDAMB231 breast cancer cells; assay: Matrigel invasion assay (modified Boyden chamber), MDA-MB-231; type: cell-based; details: MDA-MB-231
Method: (§6) The in vitro invasiveness of 4910, 5310 and U87 glioma cells and MDAMB231 and ZR71 breast cancer cells in the presence of specified concentrations of compounds were assessed using a modified Boyden chamber assay. Cells were treated with these compounds for 48 h. 1×10^6 cells were suspended in 600 μl of serum-free medium supplemented with 0.2% BSA and placed in the upper compartment of the transwell chambers (Corning Costar Fischer Scientific Cat #07-200-158, Pittsburgh Pa.) coated with Matrigel (0.7 mg/ml). The lower compartment of the chamber was filled with 200 μl of serum medium and the cells were allowed to migrate for 24 h. After incubation, the cells were fixed and stained with Hema-3 and quantified as previously described (Mohanam et al. 1993). The migrated cells were imaged microscopically to determine the reduction in invasiveness induced by the compounds of this invention.

[6] = tested on: Baf3 murine leukemia cells (E255K); assay: Blast cell count in nude mice implanted with Baf3 E255K cells; type: in vivo; details: Baf3 E225K (E255K); Imatinib 10 mg/kg, AN019 20 mg/kg, AN024 20 mg/kg, oral gavage or ip; day 42
Source text: as §2, §3, §4

[7] = tested on: AKT, ERK and Pi3k in U87 glioma cells; assay: Western blot analysis, U87; type: cell-based
Method: as §5

ZR71 breast cancer cells [8] = assay: Matrigel invasion assay (modified Boyden chamber), ZR-71; type: cell-based; details: ZR-71
Method: as §6

4910 glioma cells [9] = assay: In vitro angiogenic assay, 4910 conditioned media on human dermal endothelial cells; type: cell-based; details: 4910 cells
Method: as §1

U87 glioma cells [10] = assay: Matrigel invasion assay (modified Boyden chamber), U87; type: cell-based; details: U87
Method: as §6

ZR71 breast cancer cells [11] = assay: In vitro angiogenic assay, ZR-71 conditioned media on human dermal endothelial cells; type: cell-based; details: ZR-71 cells; radiation not distinguished
Method: as §1

4910 glioma cells [12] = assay: Matrigel invasion assay (modified Boyden chamber), 4910; type: cell-based, human; details: 4910
Method: as §6

[13] = tested on: K562 luciferase expressing cells; assay: Leukemic survival study in nude mice implanted with K562 luciferase expressing cells; type: in vivo
Source text: K562 luciferase expressing cells were implanted intraperitoneally into nude mice; the mice were scanned using the xenogeny IVIS image station after ip injections of luciferin does determine implantations. Drug treatment was started as in previous studies day 15 after implantation. The animals were given treatment till day 42, after which drug treatment was stopped and survival of the animals determined as per the animal care regulations. […] Drug treatment was withdrawn on day 42 post implantation and survival of animals determined.

5310 glioma cells [14] = assay: In vitro angiogenic assay, 5310 conditioned media on human dermal endothelial cells; type: cell-based; details: 5310 cells
Method: as §1

5310 glioma cells [15] = assay: Matrigel invasion assay (modified Boyden chamber), 5310; type: cell-based; details: 5310
Method: as §6

[16] = not given; remark: listed apart in the source
[17] = tested on: Baf3 murine leukemia cells (M351T); assay: Blast cell count in nude mice implanted with Baf3 M351T cells; type: in vivo; details: Baf3M351T; Imatinib 10 mg/kg, AN019 20 mg/kg, AN024 20 mg/kg, oral gavage or ip; day 42
Source text: as §2, §3, §4

[18] = tested on: 4910 human glioma xenograft cells; assay: Glioma radiation study, nude mice intracranially implanted with 4910 cells; type: in vivo
Method: Nude mice were intracranially implanted with 4910 human glioma xenograft cells (1×10^6 cells). Ten days after implantation mice were treated with AN019, AN024 or temozolomide with or without radiation (5 Gy/week). The experiment was terminated at day 40 post implantation.

[19] = tested on: AKT, ERK and Pi3k in 4910 glioma cells; assay: Western blot analysis, 4910; type: cell-based, human
Method: as §5

Compound: Cc1ccc(NC(=O)c2cccc(S(=O)(=O)C(F)(F)F)c2)cc1Nc1nccc(-c2cccnc2)n1 [AN024]
- Inhibition of angiogenesis (U87 glioma cells [1]; after radiation): increase in inhibition
- Inhibition of angiogenesis (U87 glioma cells [1]; without radiation): significant retardation in angiogenesis
- Blast cell count in blood smears [2]: significant decrease in blast cell count
- LD50 (po) Mice: 1440 mg/kg
- AKT levels (Western blot) ([3]; ZR71, after radiation): decrease in AKT expression
- AKT levels (Western blot) ([3]; ZR71, unirradiated): did not show any significant change
- PI3k levels (Western blot) ([3]; ZR71, with radiation): decrease in PI3k levels
- ED50 (po) Mice (K562): 10 mg/kg
- Inhibition of angiogenesis ([4]; after radiation): only a slight inhibition
- Inhibition of angiogenesis ([4]; control condition (without radiation)): only a slight inhibition
- ±Change in invasion after radiation [5]: +4%
- Blast cell count in blood smears [6]: significant decrease in blast cell count
- ERK levels (Western blot) ([7]; U87, after radiation): decrease was enhanced
- ERK levels (Western blot) ([7]; U87, without radiation): slight decrease in ERK levels
- ±Change in invasion after radiation (ZR71 breast cancer cells [8]): −3%
- Inhibition of angiogenesis (4910 glioma cells [9]; after radiation): significant inhibition of angiogenesis
- Inhibition of angiogenesis (4910 glioma cells [9]; without radiation): significant inhibition of angiogenesis
- ±Change in invasion after radiation (U87 glioma cells [10]): −24%
- Inhibition of angiogenesis (ZR71 breast cancer cells [11]): complete inhibition of angiogenesis
- ±Change in invasion after radiation (4910 glioma cells [12]): −17%
- Blast cell count from blood smears, effectiveness after withdrawal of drug treatment ([13]; drug treatment withdrawn on day 42): showed effectiveness after withdrawal of drug treatment
- Animals showing no signs of leukemia / complete absence of leukemic symptoms ([13]; of 10 animals, drug withdrawn day 42, AN024 on day 55): 8 animals
- Mortality ([13]; treatment day 15 to day 42, then withdrawn, 10 animals): mortality on day 38
- Inhibition of angiogenesis (5310 glioma cells [14]; after radiation): angiogenesis further inhibited
- Inhibition of angiogenesis (5310 glioma cells [14]; control conditions (without radiation)): inhibition of angiogenesis
- ±Change in invasion after radiation (5310 glioma cells [15]): +5%
- MTD Mice [16]: 500 mg/kg
- Blast cell count in blood smears [17]: significant decrease in blast cell count
- Animals cured / no observable intracranial tumor ([18]; of 10 animals, with radiation (5 Gy/week), day 40 post implantation): 7 animals
- Animals cured / complete absence of intracranial tumours ([18]; of 10 animals, without radiation, day 40 post implantation): 3 animals
- Intracranial tumour size and appearance ([18]; with radiation (5 Gy/week)): well defined surgically respectable tumours
- Intracranial tumour size and appearance ([18]; without radiation): tumours were well defined and not showing diffuse edges
- AKT levels (Western blot) ([19]; 4910, after radiation): decrease in AKT levels was enhanced
- AKT levels (Western blot) ([19]; 4910, without radiation): decrease in AKT levels

Reference: patent US8067422B2, “Crystal form of phenylamino pyrimidine derivatives” (Natco Pharma Limited, priority 2008, dated 2011)
